This note sets out measurements from ChEMBL document CHEMBL5550210, “Discovery of Novel α,β-Unsaturated Amide Derivatives as Candidate Antifungals to Overcome Fungal Resistance” (J Med Chem, 2024).

≈ marks a conversion by molar mass, not a printed value.

What all share (format): functional
The subject of test [1] is Candida albicans. The experiment in a line: Antifungal activity against fluconazole-resistant Candida albicans 901 assessed as inhibition of fungal growth by CLSI based microdilution method.
A further test deals with Candida parapsilosis. The experiment in a line: Antifungal activity against Candida parapsilosis ATCC 22019 assessed as inhibition of fungal growth by CLSI protocol based microdilution method. The settings on record: Lodderomyces parapsilosis.
The next test concerns Candida tropicalis. Kind of test: Antifungal activity against Candida tropicalis CGMCC 2.3739 assessed as inhibition of fungal growth by CLSI protocol based microdilution method.
A further test deals with Cryptococcus neoformans. Kind of test: Antifungal activity against Cryptococcus neoformans CGMCC2.3161 assessed as inhibition of fungal growth by CLSI protocol based microdilution method.
The next test has as its system Nakaseomyces glabratus. Kind of test: Antifungal activity against Candida glabrata assessed as inhibition of fungal growth by CLSI protocol based microdilution method.
Test [2] has as its system Candida albicans. Kind of test: Antifungal activity against Candida albicans SC5314 assessed as inhibition of fungal growth by CLSI protocol based microdilution method.
Test [3] has as its system Candida albicans. The experiment in a line: Antifungal activity against fluconazole-resistant Candida albicans 17 assessed as inhibition of fungal growth by CLSI based microdilution method.
For test [4], the system named is Candida albicans. Kind of test: Antifungal activity against fluconazole-resistant Candida albicans CaR assessed as inhibition of fungal growth by CLSI based microdilution method.
Test [5] has as its system Candida albicans. Kind of test: Antifungal activity against fluconazole-resistant Candida albicans 632 assessed as inhibition of fungal growth by CLSI based microdilution method.
The subject of a further test is Pichia kudriavzevii. Kind of test: Antifungal activity against Candida krusei AS 2.1045 assessed as inhibition of fungal growth by CLSI protocol based microdilution method.
In test [6] the test system is Candida albicans. Kind of test: Antifungal activity against fluconazole-resistant Candida albicans 904 assessed as inhibition of fungal growth by CLSI based microdilution method.
The test system of the next test is Aspergillus fumigatus. The experiment in a line: Antifungal activity against Aspergillus fumigatus CGMCC 3.7795 assessed as inhibition of fungal growth by CLSI protocol based microdilution method.
For test [7], the system named is Candida albicans. The experiment in a line: Antifungal activity against Candida albicans CPCC400616 assessed as inhibition of fungal growth by CLSI protocol based microdilution method.

In the case of `O=C(/C=C/c1ccc(COC(Cn2ccnc2)c2ccc(Cl)cc2Cl)cc1)NC1CC1` (centres undefined), the MIC in the test with Candida albicans [1] worked out at 2 µg/mL (≈ 4.38 µM); in the test on Candida parapsilosis it was 1 µg/mL (≈ 2.19 µM); with Candida tropicalis, 4 µg/mL (≈ 8.76 µM); in the test with Cryptococcus neoformans, 16 µg/mL (≈ 35.1 µM); in the test with Nakaseomyces glabratus, 64 µg/mL (≈ 140 µM); in the test on Candida albicans [2], 0.125 µg/mL (≈ 0.274 µM). Moreover, the MIC was 32 µg/mL (≈ 70.1 µM) with Candida albicans [3]; 128 µg/mL (≈ 280 µM) in the test with Candida albicans [4]; 1 µg/mL (≈ 2.19 µM) with Candida albicans [5]; 64 µg/mL (≈ 140 µM) in the test with Pichia kudriavzevii; 4 µg/mL (≈ 8.76 µM) in the test on Candida albicans [6]; 2 µg/mL (≈ 4.38 µM) in the test with Aspergillus fumigatus. The MIC in the test on Candida albicans [7] came to 0.25 µg/mL (≈ 0.548 µM).
Consider `O=C(/C=C/c1ccc(COC(Cn2ccnc2)c2ccc(Cl)cc2Cl)cc1)Nc1ccc(Cl)cc1` (centres undefined), for which the minimal inhibitory concentration (MIC) in the test with Candida albicans [1] amounted to 1 µg/mL (≈ 1.9 µM); in the test with Candida parapsilosis, 0.125 µg/mL (≈ 0.237 µM); in the test with Candida tropicalis, 1 µg/mL (≈ 1.9 µM); in the test on Cryptococcus neoformans it was 2 µg/mL (≈ 3.8 µM); with Nakaseomyces glabratus, 8 µg/mL (≈ 15.2 µM); in the test on Candida albicans [2] it was 0.03 µg/mL (≈ 0.0569 µM). Moreover, the MIC is 128 µg/mL (≈ 243 µM) in the test on Candida albicans [3]; 8 µg/mL (≈ 15.2 µM) in the test with Candida albicans [4]; 0.5 µg/mL (≈ 0.949 µM) with Candida albicans [5]; 4 µg/mL (≈ 7.59 µM) with Pichia kudriavzevii; 0.5 µg/mL (≈ 0.949 µM) in the test on Candida albicans [6]; 0.5 µg/mL (≈ 0.949 µM) in the test on Aspergillus fumigatus. For the same compound, the MIC with Candida albicans [7] amounted to 0.06 µg/mL (≈ 0.114 µM).
For the compound `Cc1ccccc1NC(=O)/C=C/c1ccc(COC(Cn2ccnc2)c2ccc(Cl)cc2Cl)cc1` (centres undefined), the MIC came out at 4 µg/mL (≈ 7.9 µM) in the test on Candida albicans [1]; 0.5 µg/mL (≈ 0.987 µM) in the test on Candida parapsilosis; 16 µg/mL (≈ 31.6 µM) in the test with Candida tropicalis; 2 µg/mL (≈ 3.95 µM) in the test on Cryptococcus neoformans; 64 µg/mL (≈ 126 µM) in the test on Nakaseomyces glabratus; 0.03 µg/mL (≈ 0.0592 µM) in the test with Candida albicans [2]. Also, the MIC was 128 µg/mL (≈ 253 µM) with Candida albicans [3]; 16 µg/mL (≈ 31.6 µM) with Candida albicans [4]; 2 µg/mL (≈ 3.95 µM) in the test with Candida albicans [5]; 16 µg/mL (≈ 31.6 µM) in the test on Pichia kudriavzevii; 2 µg/mL (≈ 3.95 µM) with Candida albicans [6]; 2 µg/mL (≈ 3.95 µM) with Aspergillus fumigatus. In addition, the MIC in the test on Candida albicans [7] is 0.125 µg/mL (≈ 0.247 µM).
Regarding `O=C(/C=C/c1ccc(COC(Cn2ccnc2)c2ccc(Cl)cc2Cl)cc1)Nc1ccc(C(F)(F)F)cc1` (centres undefined), the MIC with Candida albicans [1] came to 16 µg/mL (≈ 28.6 µM); with Candida parapsilosis, 0.5 µg/mL (≈ 0.892 µM); in the test on Candida tropicalis it was 64 µg/mL (≈ 114 µM); in the test with Cryptococcus neoformans, 2 µg/mL (≈ 3.57 µM); with Nakaseomyces glabratus, 32 µg/mL (≈ 57.1 µM); in the test on Candida albicans [2], 0.03 µg/mL (≈ 0.0535 µM). Besides, the MIC in the test on Candida albicans [3] was 128 µg/mL (≈ 228 µM); with Candida albicans [4] it was 64 µg/mL (≈ 114 µM); with Candida albicans [5], 2 µg/mL (≈ 3.57 µM); in the test on Pichia kudriavzevii, 64 µg/mL (≈ 114 µM); in the test on Candida albicans [6], 8 µg/mL (≈ 14.3 µM); in the test on Aspergillus fumigatus it was 32 µg/mL (≈ 57.1 µM). For the same compound, the MIC with Candida albicans [7] worked out at 0.03 µg/mL (≈ 0.0535 µM).
Turning to `COc1ccc(NC(=O)/C=C/c2ccc(COC(Cn3ccnc3)c3ccc(Cl)cc3Cl)cc2)cc1` (centres undefined), the MIC with Candida albicans [1] amounted to 4 µg/mL (≈ 7.66 µM); in the test with Candida parapsilosis, 0.125 µg/mL (≈ 0.239 µM); in the test on Candida tropicalis, 4 µg/mL (≈ 7.66 µM); in the test with Cryptococcus neoformans it was 0.125 µg/mL (≈ 0.239 µM); in the test on Nakaseomyces glabratus, 4 µg/mL (≈ 7.66 µM); in the test with Candida albicans [2] it was 0.06 µg/mL (≈ 0.115 µM). Moreover, the MIC was 2 µg/mL (≈ 3.83 µM) in the test with Candida albicans [3]; 4 µg/mL (≈ 7.66 µM) in the test on Candida albicans [4]; 0.25 µg/mL (≈ 0.479 µM) in the test on Candida albicans [5]; 2 µg/mL (≈ 3.83 µM) in the test on Pichia kudriavzevii; 4 µg/mL (≈ 7.66 µM) in the test on Candida albicans [6]; 4 µg/mL (≈ 7.66 µM) with Aspergillus fumigatus. For the same compound, the MIC in the test on Candida albicans [7] is 0.03 µg/mL (≈ 0.0574 µM).
Consider `O=C(/C=C/c1ccc(COC(Cn2ccnc2)c2ccc(Cl)cc2Cl)cc1)Nc1ccc(Br)cc1` (centres undefined), for which the minimal inhibitory concentration (MIC) stood at 8 µg/mL (≈ 14 µM) in the test on Candida albicans [1]; 0.25 µg/mL (≈ 0.438 µM) in the test on Candida parapsilosis; 32 µg/mL (≈ 56 µM) in the test on Candida tropicalis; 4 µg/mL (≈ 7 µM) in the test on Cryptococcus neoformans; 8 µg/mL (≈ 14 µM) with Nakaseomyces glabratus; 0.03 µg/mL (≈ 0.0525 µM) with Candida albicans [2]. Besides, the MIC with Candida albicans [3] was found to be 32 µg/mL (≈ 56 µM); in the test on Candida albicans [4], 16 µg/mL (≈ 28 µM); with Candida albicans [5], 4 µg/mL (≈ 7 µM); with Pichia kudriavzevii, 16 µg/mL (≈ 28 µM); in the test with Candida albicans [6], 4 µg/mL (≈ 7 µM); with Aspergillus fumigatus it was 16 µg/mL (≈ 28 µM). Besides, in the test on Candida albicans [7], the MIC was 0.06 µg/mL (≈ 0.105 µM).
With `CCCNC(=O)/C=C/c1ccc(COC(Cn2ccnc2)c2ccc(Cl)cc2Cl)cc1` (centres undefined), the MIC in the test on Candida albicans [1] stood at 16 µg/mL (≈ 34.9 µM); with Candida parapsilosis, 0.125 µg/mL (≈ 0.273 µM); in the test with Candida tropicalis it was 8 µg/mL (≈ 17.5 µM); in the test on Cryptococcus neoformans it was 4 µg/mL (≈ 8.73 µM); with Nakaseomyces glabratus, 8 µg/mL (≈ 17.5 µM); in the test on Candida albicans [2] it was 0.03 µg/mL (≈ 0.0654 µM). The MIC in the test with Candida albicans [3] amounted to 32 µg/mL (≈ 69.8 µM); with Candida albicans [4], 64 µg/mL (≈ 140 µM); with Candida albicans [5], 2 µg/mL (≈ 4.36 µM); in the test on Pichia kudriavzevii, 4 µg/mL (≈ 8.73 µM); in the test on Candida albicans [6] it was 16 µg/mL (≈ 34.9 µM); in the test with Aspergillus fumigatus, 4 µg/mL (≈ 8.73 µM). Further, the MIC in the test with Candida albicans [7] was found to be 0.06 µg/mL (≈ 0.131 µM).
As for `CCNC(=O)/C=C/c1ccc(COC(Cn2ccnc2)c2ccc(Cl)cc2Cl)cc1` (centres undefined), the MIC in the test with Candida albicans [1] turned out to be 16 µg/mL (≈ 36 µM); with Candida parapsilosis, 8 µg/mL (≈ 18 µM); in the test with Candida tropicalis it was 4 µg/mL (≈ 9 µM); with Cryptococcus neoformans, 8 µg/mL (≈ 18 µM); in the test with Nakaseomyces glabratus, 16 µg/mL (≈ 36 µM); with Candida albicans [2], 1 µg/mL (≈ 2.25 µM). Besides, the MIC worked out at 128 µg/mL (≈ 288 µM) with Candida albicans [3]; 128 µg/mL (≈ 288 µM) in the test with Candida albicans [4]; 2 µg/mL (≈ 4.5 µM) in the test with Candida albicans [5]; 32 µg/mL (≈ 72 µM) in the test with Pichia kudriavzevii; 16 µg/mL (≈ 36 µM) in the test on Candida albicans [6]; 8 µg/mL (≈ 18 µM) in the test with Aspergillus fumigatus. Moreover, the MIC in the test on Candida albicans [7] was 0.5 µg/mL (≈ 1.13 µM).
